“And” between values parts separate entries of the source, which are not always exact repeats. Identical values can stand only once. Inconclusive results are not listed.
Test system: nude mice, LX-1 lung xenograft intrarenal, tumor weight T/C
Experiment: NCI In Vivo Anticancer Drug Screen. Data for tumor model Human Lung LX-1 Xenograft (intrarenal inoculation) in NU/NU Swiss (nude) mice
Settings: endpoint: mean tumor weight change, higher = larger tumour
Method in brief: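 Tumor-bearing mice receive test compound or vehicle; tumor size is then measured in each group. The treated value is divided by the vehicle value to give T/C.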

[1] = dose: 300.0 mg/kg/injection, schedule: Q04DX003 (sc), vehicle: saline with Tween-80
[2] = dose: 600.0 mg/kg/injection, schedule: Q04DX003 (sc), vehicle: saline with Tween-80
[3] = dose: 1200.0 mg/kg/injection, schedule: Q04DX003 (sc), vehicle: saline with Tween-80
[4] = dose: 300.0 mg/kg/injection, schedule: Q04DX003 (sc), vehicle: Klucel (hydroxypropylcellulose) (HPC)
[5] = dose: 1200.0 mg/kg/injection, schedule: Q04DX003 (sc), vehicle: Klucel (hydroxypropylcellulose) (HPC)
[6] = dose: 6.25 mg/kg/injection, schedule: Q01DX010 (sc), vehicle: Klucel (hydroxypropylcellulose) (HPC)
[7] = dose: 12.5 mg/kg/injection, schedule: Q01DX010 (sc), vehicle: Klucel (hydroxypropylcellulose) (HPC)
[8] = dose: 25.0 mg/kg/injection, schedule: Q01DX010 (sc), vehicle: Klucel (hydroxypropylcellulose) (HPC)
[9] = dose: 400.0 mg/kg/injection, schedule: Q01DX010 (sc), vehicle: Klucel (hydroxypropylcellulose) (HPC)
[10] = dose: 100.0 mg/kg/injection, schedule: Q04DX003 (sc), vehicle: Klucel (hydroxypropylcellulose) (HPC)
[11] = dose: 200.0 mg/kg/injection, schedule: Q04DX003 (sc), vehicle: Klucel (hydroxypropylcellulose) (HPC)
[12] = dose: 400.0 mg/kg/injection, schedule: Q04DX003 (sc), vehicle: Klucel (hydroxypropylcellulose) (HPC)
[13] = dose: 800.0 mg/kg/injection, schedule: Q04DX003 (sc), vehicle: Klucel (hydroxypropylcellulose) (HPC)

Structure (SMILES): CC1OC(=O)C(C(C)C)NC(=O)C(C(C)C)OC(=O)C(C(C)C)NC(=O)C(C)OC(=O)C(C(C)C)NC(=O)C(C(C)C)OC(=O)C(C(C)C)NC(=O)C(C)OC(=O)C(C(C)C)NC(=O)C(C(C)C)OC(=O)C(C(C)C)NC1=O (stereo not given)
- T/C (dose: 5.0 mg/kg/injection, schedule: Q01DX010 (ip), vehicle: saline with Tween-80): 44 % of control
- T/C (dose: 5.0 mg/kg/injection, schedule: Q01DX010 (sc), vehicle: saline with Tween-80): 107 % of control
- T/C (dose: 10.0 mg/kg/injection, schedule: Q01DX010 (ip), vehicle: saline with Tween-80): 28 % of control
- T/C (dose: 16.66 mg/kg/injection, schedule: Q04DX003 (ip), vehicle: saline with Tween-80): 56 % of control
- T/C (dose: 16.66 mg/kg/injection, schedule: Q04DX003 (sc), vehicle: saline with Tween-80): 179 % of control
- T/C (dose: 33.33 mg/kg/injection, schedule: Q04DX003 (sc), vehicle: saline with Tween-80): 94 % of control
- T/C (dose: 66.65 mg/kg/injection, schedule: Q04DX003 (ip), vehicle: saline with Tween-80): 37 % of control
- T/C (dose: 66.65 mg/kg/injection, schedule: Q04DX003 (sc), vehicle: saline with Tween-80): 119 % of control

Structure (SMILES): O=C(Nc1nncs1)c1cccs1
- T/C [1]: 119 % of control
- T/C [2]: 85 % of control
- T/C [3]: 120 % of control

Structure (SMILES): CN=C(N)N/N=C(\C)c1ccc2oc3ccc(/C(C)=N/NC(N)=NC)cc3c2c1
- T/C (dose: 75.0 mg/kg/injection, schedule: Q04DX003 (sc), vehicle: saline with Tween-80): 89 % of control
- T/C (dose: 150.0 mg/kg/injection, schedule: Q04DX003 (sc), vehicle: saline with Tween-80): 65 % of control

Structure (SMILES): Cc1cc(Nc2ccc3c(c2)OCO3)c2cc3c(cc2n1)OCO3
- T/C (dose: 150.0 mg/kg/injection, schedule: Q04DX003 (sc), vehicle: Klucel (hydroxypropylcellulose) (HPC)): 113 % of control
- T/C [4]: 155 % of control
- T/C [5]: 123 % of control

Structure (SMILES): C=C1C(=O)OCC2C(C(=O)O)=CC3C(C)C(C)=CC123 (stereo not given)
- T/C (dose: 3.13 mg/kg/injection, schedule: Q01DX010 (sc), vehicle: Klucel (hydroxypropylcellulose) (HPC)): 56 % of control
- T/C [6]: 109 % of control
- T/C [7]: 78 % of control
- T/C [8]: 165 % of control

Structure (SMILES): CS(=O)(=O)OCCCNCCCOS(C)(=O)=O
- T/C (dose: 75.0 mg/kg/injection, schedule: Q04DX003 (sc), vehicle: saline): 71 % of control

Structure (SMILES): CC(=O)[O][Pb]([O]C(C)=O)([c]1ccccc1)[c]1ccccc1
- T/C [9]: 40 % of control

Structure (SMILES): Cc1nc(N)nc(N)c1-c1ccc(Cl)c(Cl)c1
- T/C (dose: 0.16 mg/kg/injection, schedule: Q01DX010 (sc), vehicle: saline): 85 % of control
- T/C (dose: 0.32 mg/kg/injection, schedule: Q01DX010 (sc), vehicle: saline): 111 % of control
- T/C (dose: 0.63 mg/kg/injection, schedule: Q01DX010 (sc), vehicle: saline): 115 % of control
- T/C (dose: 1.25 mg/kg/injection, schedule: Q01DX010 (sc), vehicle: saline): 106 % of control

Structure (SMILES): CC1=C(O)C(=O)[C@@H]2O[C@@H]2C1=O
- T/C (dose: 1.25 mg/kg/injection, schedule: Q04DX003 (sc), vehicle: saline): 103 % of control
- T/C (dose: 2.5 mg/kg/injection, schedule: Q04DX003 (sc), vehicle: saline): 106 % of control
- T/C (dose: 5.0 mg/kg/injection, schedule: Q04DX003 (sc), vehicle: saline): 160 % of control
- T/C (dose: 10.0 mg/kg/injection, schedule: Q04DX003 (sc), vehicle: saline): 114 % of control

Structure (SMILES): O=C(CCCN1CCC(O)(c2cccc(C(F)(F)F)c2)CC1)c1ccc(F)cc1
- T/C [6]: 52 % of control
- T/C [7]: 96 % of control
- T/C [8]: 60 % of control
- T/C (dose: 50.0 mg/kg/injection, schedule: Q01DX010 (sc), vehicle: Klucel (hydroxypropylcellulose) (HPC)): 45 % of control and 54 % of control

Structure (SMILES): C=CC(=O)NCNC(=O)C=C
- T/C (dose: 25.0 mg/kg/injection, schedule: Q01DX010 (sc), vehicle: saline): 88 % of control
- T/C (dose: 50.0 mg/kg/injection, schedule: Q01DX010 (sc), vehicle: saline): 103 % of control
- T/C (dose: 100.0 mg/kg/injection, schedule: Q01DX010 (sc), vehicle: saline): 64 % of control

Structure (SMILES): Cc1ccc(C2NC(=S)N3C(c4ccc(C)cc4)NC(=S)N23)cc1 (stereo not given)
- T/C [4]: 64 % of control
- T/C (dose: 600.0 mg/kg/injection, schedule: Q04DX003 (sc), vehicle: Klucel (hydroxypropylcellulose) (HPC)): 66 % of control
- T/C [5]: 80 % of control
- T/C (dose: 2400.0 mg/kg/injection, schedule: Q04DX003 (sc), vehicle: Klucel (hydroxypropylcellulose) (HPC)): 65 % of control

Structure (SMILES): ClCCCCCCCCCCc1ccccc1
- T/C (dose: 100.0 mg/kg/injection, schedule: Q01DX010 (sc), vehicle: Klucel (hydroxypropylcellulose) (HPC)): 260 % of control
- T/C (dose: 200.0 mg/kg/injection, schedule: Q01DX010 (sc), vehicle: Klucel (hydroxypropylcellulose) (HPC)): 94 % of control
- T/C [9]: 71 % of control
- T/C (dose: 800.0 mg/kg/injection, schedule: Q01DX010 (sc), vehicle: Klucel (hydroxypropylcellulose) (HPC)): 52 % of control

Structure (SMILES): Nc1cccc(=O)[nH]1
- T/C (dose: 300.0 mg/kg/injection, schedule: Q04DX003 (sc), vehicle: saline): 100 % of control
- T/C (dose: 600.0 mg/kg/injection, schedule: Q04DX003 (sc), vehicle: saline): 110 % of control
- T/C (dose: 1200.0 mg/kg/injection, schedule: Q04DX003 (sc), vehicle: saline): 105 % of control

Structure (SMILES): O=C1c2ccccc2C(=O)c2c(NCCNCCO)ccc(NCCNCCO)c21
- T/C (dose: 4.0 mg/kg/injection, schedule: Q01DX010 (sc), vehicle: water): 54 % of control
- T/C (dose: 16.0 mg/kg/injection, schedule: Q01DX010 (sc), vehicle: water): 65 % of control

Structure (SMILES): C[C@H](N)C(=O)N[C@@H]1[C@H]2C(=C(O)C[C@@H](O)[C@@H]2O)C(=O)O[C@]1(C)C(Cl)Cl
- T/C (dose: 1.5 mg/kg/injection, schedule: Q04DX003 (sc), vehicle: Klucel (hydroxypropylcellulose) (HPC)): 108 % of control
- T/C (dose: 3.0 mg/kg/injection, schedule: Q04DX003 (sc), vehicle: Klucel (hydroxypropylcellulose) (HPC)): 107 % of control
- T/C (dose: 6.0 mg/kg/injection, schedule: Q04DX003 (sc), vehicle: Klucel (hydroxypropylcellulose) (HPC)): 81 % of control

Structure (SMILES): O=Cc1ccccc1
- T/C [10]: 64 % of control
- T/C [11]: 75 % of control
- T/C [12]: 73 % of control
- T/C [13]: 112 % of control

Structure (SMILES): Nc1nc(-c2ccccc2)c(Br)c(=O)[nH]1
- T/C [1]: 77 % of control
- T/C [2]: 69 % of control
- T/C [3]: 54 % of control
- T/C (dose: 2400.0 mg/kg/injection, schedule: Q04DX003 (sc), vehicle: saline with Tween-80): 66 % of control

Structure (SMILES): Cn1cnc([N+](=O)[O-])c1Sc1ncn[nH]1
- T/C (dose: 100.0 mg/kg/injection, schedule: Q04DX003 (sc), vehicle: suspension in saline): 96 % of control
- T/C (dose: 200.0 mg/kg/injection, schedule: Q04DX003 (sc), vehicle: suspension in saline): 96 % of control
- T/C (dose: 400.0 mg/kg/injection, schedule: Q04DX003 (sc), vehicle: suspension in saline): 32 % of control

Structure (SMILES): NC(=S)N/N=C/c1ccc(OC(=O)COc2ccc(Cl)cc2)cn1
- T/C [1]: 54 % of control
- T/C [2]: 44 % of control
- T/C [3]: 23 % of control

Structure (SMILES): CCCCNC(C)[C@]1(O)Cc2c(O)c3c(c(O)c2[C@@H](OC2CC(N)C(O)C(C)O2)C1)C(=O)c1c(OC)cccc1C3=O (stereo not given in full)
- T/C (dose: 6.25 mg/kg/injection, schedule: Q01DX010 (sc), vehicle: saline): 69 % of control
- T/C (dose: 12.5 mg/kg/injection, schedule: Q01DX010 (sc), vehicle: saline): 68 % of control

Structure (SMILES): COc1cc2c(c(OC)c1OC)-c1c(cc3c(c1OC)OCO3)CC(C)C(C)(O)C2OC(=O)c1ccccc1 (stereo not given)
- T/C (dose: 300.0 mg/kg/injection, schedule: Q04DX003 (sc), vehicle: saline + alcohol): 65 % of control
- T/C (dose: 600.0 mg/kg/injection, schedule: Q04DX003 (sc), vehicle: saline + alcohol): 107 % of control
- T/C (dose: 1200.0 mg/kg/injection, schedule: Q04DX003 (sc), vehicle: saline + alcohol): 108 % of control
- T/C (dose: 2400.0 mg/kg/injection, schedule: Q04DX003 (sc), vehicle: saline + alcohol): 77 % of control

Structure (SMILES): COc1ccc2c(c1)CCC(c1ccccc1)=C2c1ccc(OCCN2CCCC2)cc1
- T/C [10]: 116 % of control
- T/C [11]: 85 % of control
- T/C [12]: 57 % of control
- T/C [13]: 101 % of control

Structure (SMILES): COc1ccc(C(=O)C(CN(C)C)CN(C)C)cc1
- T/C (dose: 12.5 mg/kg/injection, schedule: Q04DX003 (sc), vehicle: saline): 68 % of control
- T/C (dose: 25.0 mg/kg/injection, schedule: Q04DX003 (sc), vehicle: saline): 113 % of control
- T/C (dose: 50.0 mg/kg/injection, schedule: Q04DX003 (sc), vehicle: saline): 64 % of control
